Experimental data as given in patent US7772262B2, “Substituted benzoylguanidines, method for production and use thereof as medicament or diagnostic and medicament comprising the same” (sanofi-aventis Deutschland GmbH, priority 2004, dated 2010).
Structures can show the parent of a compound that is named as a salt.

Columns and labels:
human NHE-1 = target: T1, human NHE-1 (Homo sapiens, UniProt P19634); assay: NHE-1 inhibition, FLIPR assay of pHi recovery in transfected cell lines; assay type: cell-based; settings: transfected LAP-1 cell line expressing human NHE-1, read-out: NHE1 inhibition IC50
T1 construct: expressed in transfected cells
Description: Determination of the NHE Inhibition
The inhibitory concentration IC50 for NHE-1 inhibition was determined as follows:
IC50 for NHE-1 inhibition was determined in an FLIPR assay by measurement of the pHi recovery in transfected cell lines which express human NHE-1.
The assay was carried out in an FLIPR (fluorometric imaging plate reader) with black-walled 96-well microtiter plates with clear bases.
The growth medium for the transfected cells (Iscove+10% fetal calf serum) additionally contained G418 as selection antibiotic in order to ensure the presence of the transfected sequences.
The actual assay started with the removal of the growth medium and addition of 100 μl of loading buffer per well (5 μM BCECF-AM [2′,7′-bis(carboxyethyl)-5- (and -6-)carboxyfluorescein, acetoxymethyl ester] in 20 mM NH4Cl, 115 mM choline chloride, 1 mM MgCl2, 1 mM CaCl2, 5 mM KCl, 20 mM HEPES, 5 mM glucose; pH 7.4 [adjusted with KOH]). The cells were then incubated at 37° C. for 20 minutes. This incubation led to loading of the cells with the fluorescent dye whose fluorescence intensity depends on pHi, and with NH4Cl which made the cells slightly alkaline.
The nonfluorescent dye precursor BCECF-AM is, as ester, membrane-permeable. The actual dye BCECF is not membrane-permeable but is liberated inside cells by esterases.
After this incubation for 20 minutes, the loading buffer which contained NH4Cl and free BCECF-AM was removed by washing three times in a cell washer (Tecan Columbus) with in each case 400 μl of washing buffer (133.8 mM choline chloride, 4.7 mM KCl, 1.25 mM MgCl2, 1.25 mM CaCl2, 0.97 mM K2HPO4, 0.23 mM KH2PO4, 5 mM HEPES, 5 mM glucose pH 7.4 [adjusted with KOH]). The residual volume which remained in the wells was 90 μl (50-125 μl possible). This washing step removed the free BCECF-AM and resulted, as a consequence of the removal of the external NH4^+ ions, in intracellular acidification (˜pHi 6.3-6.4).
This may eventually lead to cell death if it persists long enough.
It was important at this point that the washing buffer was sodium-free (<1 mM) because extracellular sodium ions would lead to an instantaneous recovery of the pHi through the activity of the cloned NHE isoforms. It was likewise important for all the buffers used (loading buffer, washing buffer, recovery buffer) not to contain any HCO3^− ions, because the presence of bicarbonate would lead to activation of interfering bicarbonate-dependent pHi regulatory systems present in the parental LAP-1 cell line.
The microtiter plates with the acidified cells were then (up to 20 minutes after the acidification) transferred to the FLIPR. In the FLIPR, the intracellular fluorescent dye was excited by light with a wavelength of 488 nm generated by an argon laser, and the measured parameters (laser power, illumination time and aperture of the CCD camera incorporated in the FLIPR) were chosen so that the average fluorescence signal per well was between 30 000 and 35 000 relative fluorescence units.
The actual measurement in the FLIPR started with a photograph being taken by the CCD camera every two seconds under software control. After ten seconds, the recovery of the intracellular pH was initiated by adding 90 μl of recovery buffer (133.8 mM NaCl, 4.7 mM KCl, 1.25 mM MgCl2, 1.25 mM CaCl2, 0.97 mM K2HPO4, 0.23 mM KH2PO4, 10 mM HEPES, 5 mM glucose; pH 7.4 [adjusted with NaOH]) by means of the 96-well pipettor incorporated in the FLIPR.
Positive control wells (100% NHE activity) were those to which pure recovery buffer is added, while negative controls (0% NHE activity) received washing buffer. Recovery buffer with twice the concentration of test substance was added to all the other wells. Measurement in the FLIPR terminated after 60 measurements (two minutes).
The raw data are exported into the ActivityBase program. This program firstly calculates the NHE activities for each tested substance concentration and, from these, the IC50 values for the substances. […]

[1] = In vivo pharmacokinetics, "n in one method", i.v. bolus in beagle dog; settings: iv; fasting male beagle dog, single i.v. bolus into jugular vein, about 1 mg/kg, plasma, co-administered (n in one)
Description: In vivo pharmacokinetics—profiling with the “n in one method”
The exposure data and the half-life were determined as characteristic pharmacokinetic data as follows:
The NHE-1 inhibitor of Example 9 of the invention and, as reference substance, the known NHE-1 inhibitor cariporide with the formula
[drawing 23] were dissolved in an aqueous, slightly acidic medium (water, pH 4, adjusted with 1M hydrochloric acid). The concentration of the aqueous formulation prepared in this way was about 1.5 mg of each substance per 1 g of solution. 10 ml of this formulation were administered as a single bolus by catheter into the jugular vein of a fasting male beagle dog (dose about 1 mg of each substance administered per kg of the dog's body weight). […]
The plasma samples were worked up and, after an HPLC separation, quantified by MS/MS. […] The exposures could be calculated using the WinNonlin computer program from the concentration-time plots (see FIG. 1) and compared with the exposure of the known NHE-1 reference substance. Since the various substances were measured in the same animal at the same time, the result was an accurate comparison of the compounds, and a ranking of the volumes of distribution was possible.

T1 sequence (P19634 whole entry): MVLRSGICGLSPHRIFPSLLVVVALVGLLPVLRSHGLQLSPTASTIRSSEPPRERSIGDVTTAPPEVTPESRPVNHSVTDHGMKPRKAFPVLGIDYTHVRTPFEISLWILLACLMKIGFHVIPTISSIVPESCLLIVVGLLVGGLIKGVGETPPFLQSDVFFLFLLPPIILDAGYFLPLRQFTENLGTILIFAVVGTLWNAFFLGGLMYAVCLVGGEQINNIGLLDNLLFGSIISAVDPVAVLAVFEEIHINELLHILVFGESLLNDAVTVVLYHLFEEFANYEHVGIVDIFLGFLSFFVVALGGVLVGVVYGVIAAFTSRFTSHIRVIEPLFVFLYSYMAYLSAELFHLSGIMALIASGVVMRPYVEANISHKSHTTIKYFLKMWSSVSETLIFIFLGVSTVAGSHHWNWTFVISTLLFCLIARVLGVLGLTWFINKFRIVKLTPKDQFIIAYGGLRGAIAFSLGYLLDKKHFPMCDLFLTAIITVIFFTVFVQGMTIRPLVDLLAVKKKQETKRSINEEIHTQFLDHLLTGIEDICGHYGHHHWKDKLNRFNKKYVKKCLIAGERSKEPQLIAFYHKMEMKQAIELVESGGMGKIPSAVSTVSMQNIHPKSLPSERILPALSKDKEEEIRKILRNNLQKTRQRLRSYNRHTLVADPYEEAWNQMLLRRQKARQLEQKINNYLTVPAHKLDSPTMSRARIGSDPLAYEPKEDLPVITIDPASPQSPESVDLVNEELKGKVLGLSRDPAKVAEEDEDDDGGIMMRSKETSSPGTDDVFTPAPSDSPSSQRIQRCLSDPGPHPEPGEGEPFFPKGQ

| Compound | IC50 (human NHE-1) [nM] | half-life [1] [h] |
| --- | --- | --- |
| Cc1cc(N2CC(c3ccc(F)cc3)CS2(=O)=O)c(S(C)(=O)=O)cc1C(=O)N=C(N)N.Cl (single isomer, unassigned; enantiomer b) [Example 9, N-{4-[4-(4-Fluorophenyl)-1,1-dioxoisothiazolidin-2-yl]-5-methanesulfonyl-2-methylbenzoyl}guanidine, hydrochloride, enantiomer B] | 23 | 4.6 |
| Cc1cc(N2CC(c3ccccc3)CCS2(=O)=O)c(S(C)(=O)=O)cc1C(=O)N=C(N)N (stereo not shown) [Example 10, N-[4-(1,1-Dioxo-4-phenyl-1-[1,2]thiazinan-2-yl)-5-methanesulfonyl-2-methylbenzoyl]guanidine] | 51 | – |
| Cc1cc(N2CCCS2(=O)=O)c(S(C)(=O)=O)cc1C(=O)N=C(N)N [Example 1, N-[4-(1,1-Dioxoisothiazolidin-2-yl)-5-methanesulfonyl-2-methyl-benzoyl]guanidine] | 38 | – |
| Cc1cc(N2C(C)(C)CCS2(=O)=O)c(S(C)(=O)=O)cc1C(=O)N=C(N)N [Example 3, N-[4-(3,3-Dimethyl-1,1-dioxoisothiazolidin-2-yl)-5-methanesulfonyl-2-methylbenzoyl]guanidine,] | 195 | – |
| Cc1cc(N2CCN(C3CC3)S2(=O)=O)c(S(C)(=O)=O)cc1C(=O)N=C(N)N [Example 11, N-[4-(5-Cyclopropyl-1,1-dioxo-1-[1,2,5]thiadiazolidin-2-yl)-5-methanesulfonyl-2-methlbenzoyl]guanidine] | 113 | – |
| Cc1cc(N2CCCCS2(=O)=O)c(S(C)(=O)=O)cc1C(=O)N=C(N)N [Example 2, N-[4-(1,1-Dioxo-[1,2]thiazinan-2-yl)-5-methanesulfonyl-2-methylbenzoyl]guanidine] | 144 | – |
| Cc1cc(N2CCCN(C3CC3)S2(=O)=O)c(S(C)(=O)=O)cc1C(=O)N=C(N)N [Example 12, N-[4-(6-Cyclopropyl-1,1-dioxo-1-[1,2,6]thiadiazinan-2-yl)-5-methanesulfonyl-2-methlbenzoyl]guanidine] | 1520 | – |
| CC(C)c1ccc(C(=O)N=C(N)N)cc1S(C)(=O)=O.CS(=O)(=O)O [cariporide, reference compound] | – | 3.3 |
| Cc1cc(N2CC(c3ccccc3)CS2(=O)=O)c(S(C)(=O)=O)cc1C(=O)N=C(N)N (single isomer, unassigned; enantiomer b) [Example 6, N-[4-(1,1-Dioxo-4-phenylisothiazolidin-2-yl)-5-methanesulfonyl-2-methylbenzoyl]guanidine, hydrochloride, enantiomer B] | 45 | – |

Second part, the molecule after the results:

| IC50 (human NHE-1) [nM] | half-life [1] [h] | Compound |
| --- | --- | --- |
| 19 | – | Cc1cc(N2CC(c3ccc(F)cc3)CS2(=O)=O)c(S(C)(=O)=O)cc1C(=O)N=C(N)N (stereo not shown) [Example 7, N-{4-[4-(4-Fluorophenyl)-1,1-dioxoisothiazolidin-2-yl]-5-methanesulfonyl-2-methylbenzoyl}guanidine, hydrochloride] |
| 6 | – | Cc1cc(N2CC(c3ccccc3)CS2(=O)=O)c(S(C)(=O)=O)cc1C(=O)N=C(N)N (stereo not shown) [Example 4, N-[4-(1,1-Dioxo-4-phenylisothiazolidin-2-yl)-5-methanesulfonyl-2-methylbenzoyl]guanidine, hydrochloride] |
| 13 | – | Cc1cc(N2CC(c3ccccc3)CS2(=O)=O)c(S(C)(=O)=O)cc1C(=O)N=C(N)N (single isomer, unassigned; enantiomer a) [Example 5, N-[4-(1,1-Dioxo-4-phenylisothiazolidin-2-yl)-5-methanesulfonyl-2-methylbenzoyl]guanidine, hydrochloride, enantiomer A] |
| 20 | – | NC(N)=NC(=O)c1ccc(N2CCCS2(=O)=O)c(C(F)(F)F)c1 [Example 13, N-[4-(1,1-Dioxo-1-isothiazolidin-2-yl)-3-trifluoromethyl-benzoyl]guanidine] |
| 12 | – | Cc1cc(N2CC(c3ccc(F)cc3)CS2(=O)=O)c(S(C)(=O)=O)cc1C(=O)N=C(N)N (single isomer, unassigned; enantiomer a) [Example 8, N-{4-[4-(4-Fluorophenyl)-1,1-dioxoisothiazolidin-2-yl]-5-methanesulfonyl-2-methlbenzoyl}guanidine, hydrochloride, enantiomer A] |
| 13 | – | NC(N)=NC(=O)c1ccc(N2CCCCS2(=O)=O)c(C(F)(F)F)c1 [Example 14, N-[4-(1,1-Dioxo-1-[1,2]thiazinan-2-yl)-3-trifluoromethyl-benzoyl]guanidine] |
